Drawing on ChEMBL document CHEMBL1131600 (J Med Chem, 1998), this text covers IC50 for 22 compounds.

What all share (type): functional, organism-based
In assay [1] the test system is Plasmodium falciparum. The experiment in a line: In vitro antimalarial activity against chloroquine-sensitive Plasmodium falciparum NF54.
The test system of assay [2] is Plasmodium falciparum. The experiment in a line: In vitro antimalarial activity against chloroquine-sensitive Plasmodium falciparum NF54 in C4alpha-alkylated trioxanes.
Assay [3] has as its system Plasmodium falciparum. In words: In vitro antimalarial activity against chloroquine-sensitive Plasmodium falciparum NF54 in C4beta-stannylmethyl trioxanes.

pIC50: −log10 of the molar value.

By pIC50 is commonly meant the negative decadic logarithm of the IC50, by convention in mol/L. A high value points to a low IC50.

`CO[C@H]1O[C@@]2(C)OOC13[C@H](CCOP(=O)(Oc1ccccc1)Oc1ccccc1)CCC[C@@H]3C[C@@H]2C` showed a pIC50 in the assay on Plasmodium falciparum [1] (Plasmodium falciparum) of 8.16.

In the case of `CO[C@H]1O[C@]2(C)CC[C@H]3CCC[C@@H](CCO)C31OO2`, the pIC50 in the assay on Plasmodium falciparum [1] (Plasmodium falciparum) was 6.92.

Turning to `CO[C@H]1O[C@@]2(C)OOC13[C@H](CCO)CCC[C@@H]3CC2Cc1ccccc1` (some centres undefined), the pIC50 in the assay with Plasmodium falciparum [2] is 5.77; with Plasmodium falciparum [3] (Plasmodium falciparum) it was 8.08.

Take `CO[C@H]1O[C@@]2(C)OOC13CCCC[C@@H]3CC2CO` (some centres undefined): the pIC50 in the assay on Plasmodium falciparum [2] was less than 5.60; in the assay on Plasmodium falciparum [3] (Plasmodium falciparum) it was 6.64.

In the case of `CO[C@H]1O[C@]2(C)CC[C@H]3CCC[C@@H](CCOCc4ccccc4)C31OO2`, in the assay with Plasmodium falciparum [1] (Plasmodium falciparum), the pIC50 is 7.60.

As for `CO[C@H]1O[C@@]2(C)OOC13CCCC[C@@H]3CC2Cc1ccc(COCc2ccc(F)cc2)cc1` (some centres undefined), the pIC50 in the assay on Plasmodium falciparum [1] (Plasmodium falciparum) is 6.62.

On to `CO[C@H]1O[C@@]2(C)OOC13CCCC[C@@H]3C[C@@H]2CO`, for which the pIC50 with Plasmodium falciparum [1] (Plasmodium falciparum) is 6.64.

Regarding `CO[C@H]1O[C@@]2(C)OOC13CCCC[C@@H]3CC2Cc1ccc(CO)cc1` (some centres undefined), the pIC50 with Plasmodium falciparum [2] was less than 5.60; with Plasmodium falciparum [3] (Plasmodium falciparum), 6.22.

`CO[C@H]1O[C@@]2(C)OOC13CCCC[C@@H]3C[C@@H]2Cc1ccc(CO)cc1` showed a pIC50 with Plasmodium falciparum [1] (Plasmodium falciparum) of 6.22.

Turning to `CO[C@H]1O[C@@]2(C)OOC13[C@H](CCO)CCC[C@@H]3CC2C` (some centres undefined), the pIC50 with Plasmodium falciparum [2] is 5.89; in the assay on Plasmodium falciparum [3] (Plasmodium falciparum), 8.11.

As for `CO[C@H]1O[C@@]2(C)OOC13CCCC[C@@H]3CC2c1ccccc1` (some centres undefined), the figures for the pIC50 with Plasmodium falciparum [2] and in the assay with Plasmodium falciparum [3] (Plasmodium falciparum) were less than 5.60 and 5.70, respectively.

The compound `CO[C@H]1O[C@@]2(C)OOC13[C@H](CCOCc1ccccc1)CCC[C@@H]3C[C@@H]2C` showed a pIC50 with Plasmodium falciparum [1] (Plasmodium falciparum) of 7.96.

With `CO[C@H]1O[C@]2(C)CC[C@H]3CCC[C@@H](CCOCc4ccc(F)cc4)C31OO2`, in the assay with Plasmodium falciparum [1] (Plasmodium falciparum), the pIC50 is 7.51.

In the case of `CO[C@H]1O[C@@]2(C)OOC13[C@H](CCOCc1ccc(F)cc1)CCC[C@@H]3C[C@@H]2C`, in the assay on Plasmodium falciparum [1] (Plasmodium falciparum), the pIC50 was 7.89.

In the case of `CO[C@H]1O[C@@]2(C)OOC13CCCC[C@@H]3C[C@@H]2COCc1ccc(F)cc1`, in the assay on Plasmodium falciparum [1] (Plasmodium falciparum), the pIC50 is 7.72.

As for `CO[C@H]1O[C@@]2(C)OOC13CCCC[C@@H]3CC2Cc1ccccc1` (some centres undefined), the pIC50 in the assay with Plasmodium falciparum [2] was less than 5.60; in the assay on Plasmodium falciparum [3] (Plasmodium falciparum), 6.51.

On to `CO[C@H]1O[C@@]2(C)OOC13[C@H](CCO)CCC[C@@H]3CC2C[Si](C)(C)C` (some centres undefined), for which the pIC50 was less than 5.60 in the assay with Plasmodium falciparum [2] and 6.62 in the assay on Plasmodium falciparum [3] (Plasmodium falciparum).

`CO[C@H]1O[C@@]2(C)OOC13[C@H](CCO)CCC[C@@H]3C[C@@H]2C` had a pIC50 in the assay on Plasmodium falciparum [1] (Plasmodium falciparum) of 8.11.

“2-((2S,6R,9S,12S)-12-Methoxy-9-methyl-8-trimethylstannanylmethyl-10,11,13-trioxa-tricyclo[7.2.2.0 1,6 ]tridec-2-yl)-ethanol” showed a pIC50 with Plasmodium falciparum [3] of less than 5.60.

As to “((6R,9S,12S)-12-Methoxy-9-methyl-10,11,13-trioxa-tricyclo[7.2.2.01,6]tridec-8-ylmethyl)-trimethyl-stannane”, the pIC50 in the assay on Plasmodium falciparum [1] was less than 5.60.

Regarding “((6R,9S,12S)-12-Methoxy-9-methyl-10,11,13-trioxa-tricyclo[7.2.2.01,6]tridec-8-ylmethyl)-triphenyl-stannane”, the pIC50 in the assay on Plasmodium falciparum [1] is less than 5.60.

The compound “Tributyl-((6R,9S,12S)-12-methoxy-9-methyl-10,11,13-trioxa-tricyclo[7.2.2.01,6]tridec-8-ylmethyl)-stannane” showed a pIC50 in the assay with Plasmodium falciparum [1] of less than 5.60.
